According to PMC12102759 (Protein Science : A Publication of the Protein Society, 2025):

Tested on: PABPC1 PABC
Type: binding, human
Conditions: DMS-BM library, bait PABPC1 PABC, prey ATXN2, peptide KSTLNPNAKEFNPRSF; A = wild type, row aa = residue at this position

Compared with KSTLNPNAKEFNPRSF, KSTLNPNAKEFNPRSF A8D (KSTLNPNDKEFNPRSF) is lower in “DMS-derived PSSM value, position A8” value: 0.5804 for the first, 0 for the second.

KSTLNPNAKEFNPRSF A8E (KSTLNPNEKEFNPRSF) and KSTLNPNAKEFNPRSF A8G (KSTLNPNGKEFNPRSF) are the same in “DMS-derived PSSM value, position A8” value: 0 for the first, 0 for the second.

KSTLNPNAKEFNPRSF A8H (KSTLNPNHKEFNPRSF) and KSTLNPNAKEFNPRSF A8I (KSTLNPNIKEFNPRSF) are the same in “DMS-derived PSSM value, position A8” value: 0 for the first, 0 for the second.

KSTLNPNAKEFNPRSF A8K (KSTLNPNKKEFNPRSF) and KSTLNPNAKEFNPRSF A8L (KSTLNPNLKEFNPRSF) are the same in “DMS-derived PSSM value, position A8” value: 0 for the first, 0 for the second.

KSTLNPNAKEFNPRSF A8M (KSTLNPNMKEFNPRSF) and KSTLNPNAKEFNPRSF A8N (KSTLNPNNKEFNPRSF) are the same in “DMS-derived PSSM value, position A8” value: 0 for the first, 0 for the second.

KSTLNPNAKEFNPRSF A8P (KSTLNPNPKEFNPRSF) and KSTLNPNAKEFNPRSF A8Q (KSTLNPNQKEFNPRSF) are the same in “DMS-derived PSSM value, position A8” value: 0 for the first, 0 for the second.

KSTLNPNAKEFNPRSF A8R (KSTLNPNRKEFNPRSF) and KSTLNPNAKEFNPRSF A8S (KSTLNPNSKEFNPRSF) are the same in “DMS-derived PSSM value, position A8” value: 0 for the first, 0 for the second.

First: KSTLNPNAKEFNPRSF A8T (KSTLNPNTKEFNPRSF)
Second: KSTLNPNAKEFNPRSF A8V (KSTLNPNVKEFNPRSF)
The “DMS-derived PSSM value, position A8” value of the first is lower: 0 for the first, 0.4196 for the second.

KSTLNPNAKEFNPRSF A8W (KSTLNPNWKEFNPRSF) and KSTLNPNAKEFNPRSF A8Y (KSTLNPNYKEFNPRSF) are the same in “DMS-derived PSSM value, position A8” value: 0 for the first, 0 for the second.

Same assay, conditions: DMS-BM library, bait PABPC1 PABC, prey ATXN2, peptide KSTLNPNAKEFNPRSF; E = wild type, row aa = residue at this position

Compared with KSTLNPNAKEFNPRSF, “KSTLNPNAKEFNPRSF E10A (KSTLNPNAKAFNPRSF)” is lower in “DMS-derived PSSM value, position E10” value: 0.1617 for the first, 0.002857 for the second.

“KSTLNPNAKEFNPRSF E10D (KSTLNPNAKDFNPRSF)” and “KSTLNPNAKEFNPRSF E10F (KSTLNPNAKFFNPRSF)” are the same in “DMS-derived PSSM value, position E10” value: 0 for the first, 0 for the second.

First: KSTLNPNAKEFNPRSF E10G (KSTLNPNAKGFNPRSF)
Second: KSTLNPNAKEFNPRSF E10H (KSTLNPNAKHFNPRSF)
The “DMS-derived PSSM value, position E10” value of the first is lower: 0 for the first, 0.3776 for the second.

First: KSTLNPNAKEFNPRSF E10I (KSTLNPNAKIFNPRSF)
Second: KSTLNPNAKEFNPRSF E10K (KSTLNPNAKKFNPRSF)
The “DMS-derived PSSM value, position E10” value of the first is lower: 0 for the first, 0.06317 for the second.

Compared with “KSTLNPNAKEFNPRSF E10L (KSTLNPNAKLFNPRSF)”, “KSTLNPNAKEFNPRSF E10M (KSTLNPNAKMFNPRSF)” is higher in “DMS-derived PSSM value, position E10” value: 0 for the first, 0.002857 for the second.

“KSTLNPNAKEFNPRSF E10N (KSTLNPNAKNFNPRSF)” and “KSTLNPNAKEFNPRSF E10P (KSTLNPNAKPFNPRSF)” are the same in “DMS-derived PSSM value, position E10” value: 0.01939 for the first, 0.01939 for the second.

“KSTLNPNAKEFNPRSF E10Q (KSTLNPNAKQFNPRSF)” and “KSTLNPNAKEFNPRSF E10R (KSTLNPNAKRFNPRSF)” are the same in “DMS-derived PSSM value, position E10” value: 0 for the first, 0 for the second.

Compared with “KSTLNPNAKEFNPRSF E10S (KSTLNPNAKSFNPRSF)”, “KSTLNPNAKEFNPRSF E10T (KSTLNPNAKTFNPRSF)” is higher in “DMS-derived PSSM value, position E10” value: 0 for the first, 0.1693 for the second.

Going from “KSTLNPNAKEFNPRSF E10V (KSTLNPNAKVFNPRSF)” to “KSTLNPNAKEFNPRSF E10W (KSTLNPNAKWFNPRSF)”, the “DMS-derived PSSM value, position E10” value falls from 0.1837 to 0.

“KSTLNPNAKEFNPRSF E10Y (KSTLNPNAKYFNPRSF)” was tested, and the “DMS-derived PSSM value, position E10” value was 0.

Same assay, conditions: DMS-BM library, bait PABPC1 PABC, prey ATXN2, peptide KSTLNPNAKEFNPRSF; F = wild type, row aa = residue at this position

First: KSTLNPNAKEFNPRSF
Second: KSTLNPNAKEFNPRSF F11A (KSTLNPNAKEANPRSF)
The “DMS-derived PSSM value, position F11” value of the first is higher: 0.393 for the first, 0 for the second.

“KSTLNPNAKEFNPRSF F11D (KSTLNPNAKEDNPRSF)” and “KSTLNPNAKEFNPRSF F11E (KSTLNPNAKEENPRSF)” are the same in “DMS-derived PSSM value, position F11” value: 0 for the first, 0 for the second.

“KSTLNPNAKEFNPRSF F11G (KSTLNPNAKEGNPRSF)” and “KSTLNPNAKEFNPRSF F11H (KSTLNPNAKEHNPRSF)” are the same in “DMS-derived PSSM value, position F11” value: 0 for the first, 0 for the second.

For “KSTLNPNAKEFNPRSF F11I (KSTLNPNAKEINPRSF)”, the “DMS-derived PSSM value, position F11” value was 0.

KSTLNPNAKEFNPRSF was tested, and the “DMS-derived PSSM value, position F16” value was 0.06015.

Same assay, conditions: DMS-BM library, bait PABPC1 PABC, prey ATXN2, peptide KSTLNPNAKEFNPRSF; K = wild type, row aa = residue at this position

In the case of KSTLNPNAKEFNPRSF, the “DMS-derived PSSM value, position K9” value is reported as 0.008078.

Same assay, conditions: DMS-BM library, bait PABPC1 PABC, prey ATXN2, peptide KSTLNPNAKEFNPRSF; L = wild type, row aa = residue at this position

KSTLNPNAKEFNPRSF was tested, and the “DMS-derived PSSM value, position L4” value was 0.6837.

Same assay, conditions: DMS-BM library, bait PABPC1 PABC, prey ATXN2, peptide KSTLNPNAKEFNPRSF; N = wild type, row aa = residue at this position

In the case of KSTLNPNAKEFNPRSF, the “DMS-derived PSSM value, position N5” value is reported as 0.9124.

For KSTLNPNAKEFNPRSF, the “DMS-derived PSSM value, position N7” value was 0.02963.

In the case of KSTLNPNAKEFNPRSF, the “DMS-derived PSSM value, position N12” value is reported as 0.02408.

Same assay, conditions: DMS-BM library, bait PABPC1 PABC, prey ATXN2, peptide KSTLNPNAKEFNPRSF; P = wild type, row aa = residue at this position

With KSTLNPNAKEFNPRSF the “DMS-derived PSSM value, position P6” value was 0.1132.

KSTLNPNAKEFNPRSF was tested, and the “DMS-derived PSSM value, position P13” value was 0.007578.

Same assay, conditions: DMS-BM library, bait PABPC1 PABC, prey ATXN2, peptide KSTLNPNAKEFNPRSF; R = wild type, row aa = residue at this position

KSTLNPNAKEFNPRSF was tested, and the “DMS-derived PSSM value, position R14” value was 0.01898.

Same assay, conditions: DMS-BM library, bait PABPC1 PABC, prey ATXN2, peptide KSTLNPNAKEFNPRSF; S = wild type, row aa = residue at this position

KSTLNPNAKEFNPRSF was tested, and the “DMS-derived PSSM value, position S2” value was 0.03631.

For KSTLNPNAKEFNPRSF, the “DMS-derived PSSM value, position S15” value was 0.05273.

Same assay, conditions: DMS-BM library, bait PABPC1 PABC, prey ATXN2, peptide KSTLNPNAKEFNPRSF; T = wild type, row aa = residue at this position

KSTLNPNAKEFNPRSF was tested, and the “DMS-derived PSSM value, position T3” value was 0.04565.
